From patent US9206130B2, “Quinoline derivatives as AXL kinase inhibitors” (Max-Planck-Gesellschaft zur Förderung der Wissenschaften …, priority 2008, dated 2015)

Experiments:
[1] = target: T1, wild type AXL (wtAXL) receptor tyrosine kinase (Homo sapiens, UniProt P30530); assay: NIH-3T3-AXL cellular tyrosine kinase assay (inhibition of AXL phosphorylation); assay type: cell-based; settings: AXL phosphorylation in NIH-3T3-AXL (clone 22) cells, serum-depleted, 2 h with compound, immunoprecipitation / anti-phosphotyrosine blot
T1 construct: WtAXL cDNA was cloned into vector pLXSN(ESK) and transfected into Phoenix E packaging cells; expressed in transfected cells; host or cells: NIH3T3 N7 mouse fibroblasts, retrovirally infected (clone 22)
T1 sequence (P30530 26-894): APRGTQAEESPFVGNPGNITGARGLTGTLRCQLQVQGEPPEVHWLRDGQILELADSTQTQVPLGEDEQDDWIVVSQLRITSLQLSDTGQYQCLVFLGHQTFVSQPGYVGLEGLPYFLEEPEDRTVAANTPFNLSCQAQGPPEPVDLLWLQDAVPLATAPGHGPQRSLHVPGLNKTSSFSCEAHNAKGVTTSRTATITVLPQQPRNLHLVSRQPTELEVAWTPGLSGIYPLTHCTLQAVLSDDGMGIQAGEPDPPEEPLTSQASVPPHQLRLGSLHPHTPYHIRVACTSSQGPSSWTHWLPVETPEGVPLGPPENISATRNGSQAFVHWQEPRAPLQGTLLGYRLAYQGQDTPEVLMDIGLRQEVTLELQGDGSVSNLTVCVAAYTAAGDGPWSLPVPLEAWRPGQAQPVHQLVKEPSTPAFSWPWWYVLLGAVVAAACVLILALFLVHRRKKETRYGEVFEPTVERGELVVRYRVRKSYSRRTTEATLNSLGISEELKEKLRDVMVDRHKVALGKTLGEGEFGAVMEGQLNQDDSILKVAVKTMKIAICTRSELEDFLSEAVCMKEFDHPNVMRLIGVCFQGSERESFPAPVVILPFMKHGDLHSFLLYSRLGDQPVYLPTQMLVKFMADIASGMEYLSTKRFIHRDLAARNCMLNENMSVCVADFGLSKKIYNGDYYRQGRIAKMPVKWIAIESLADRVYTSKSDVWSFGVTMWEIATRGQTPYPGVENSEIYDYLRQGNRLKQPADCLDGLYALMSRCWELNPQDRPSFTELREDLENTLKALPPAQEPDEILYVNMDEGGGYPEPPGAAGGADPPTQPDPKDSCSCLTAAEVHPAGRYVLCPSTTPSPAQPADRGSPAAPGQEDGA
Summary of the method: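 Compound inhibition of AXL autophosphorylation was read by 4G10 immunoblot after anti-AXL immunoprecipitation from lysates. Cells: NIH3T3 lines stably carrying retroviral wild-type human AXL, treated 2 h with compound dilution series.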

Row | Compound | melting point | IC50 [1]
1 | COc1cc2c(Oc3ccc(NS(=O)(=O)c4ccc(F)cc4F)cc3F)ccnc2cc1OCCN1CCOCC1 [Example D28, 2,4-Difluoro-N-{3-fluoro-4-[6-methoxy-7-(2-morpholin-4-yl-ethoxy)-quinolin-4-yloxy]-phenyl}-benzenesulfonamide] | 189 to 191 °C | > 1000 nM
2 | COc1cc2c(Oc3ccc(NS(=O)(=O)c4ccccc4F)cc3F)ccnc2cc1OCCCN1CCCC(C)C1 (stereo not drawn) [Example D30, 2-Fluoro-N-(3-fluoro-4-{6-methoxy-7-[3-(3-methyl-piperidin-1-yl)-propoxy]-quinolin-4-yloxy}-phenyl)-benzenesulfonamide] | 102 to 106 °C | 82 nM
3 | COc1cc2c(Oc3ccc(NS(=O)(=O)c4ccccc4OC(F)(F)F)cc3F)ccnc2cc1OCCCN1CCC(C)CC1 [Example D33, N-(3-Fluoro-4-{6-methoxy-7-[3-(4-methyl-piperidin-1-yl)-propoxy]-quinolin-4-yloxy}-phenyl)-2-trifluoromethoxy-benzenesulfonamide] | 206 to 208 °C | 68 nM

The remaining lines, values ahead:

Row | melting point | IC50 [1] | Compound
4 | 196 to 198 °C | 178 nM | COc1cc2c(Oc3ccc(NS(=O)(=O)c4cccc(-c5ccccc5)c4)cc3F)ccnc2cc1OCCCN1CCC(C)CC1 [Example D29, Biphenyl-3-sulfonic acid (3-fluoro-4-{6-methoxy-7-[3-(4-methyl-piperidin-1-yl)-propoxy]-quinolin-4-yloxy}-phenyl)-amide]
5 | 131 to 132 °C | 323 nM | COc1cc2c(Oc3ccc(NS(=O)(=O)c4ccccc4C#N)cc3F)ccnc2cc1OCCCN1CCCC(C)C1 (stereo not drawn) [Example D31, 2-Cyano-N-(3-fluoro-4-{6-methoxy-7-[3-(3-methyl-piperidin-1-yl)-propoxy]-quinolin-4-yloxy}-phenyl)-benzenesulfonamide]
6 | 117 to 119 °C | 42 nM | COc1cc2c(Oc3ccc(NS(=O)(=O)c4c(F)cccc4F)cc3F)ccnc2cc1OCCCN1CCCC(C)C1 (stereo not drawn) [Example D32, 2,6-Difluoro-N-(3-fluoro-4-{6-methoxy-7-[3-(3-methyl-piperidin-1-yl)-propoxy]-quinolin-4-yloxy}-phenyl)-benzenesulfonamide]
